For the assay, the system named is 156681-154-R-J1-PDC tumor spheroids, viability % test/control. Put plainly: Anticancer human tumor 156681-154-R-J1-PDC patient-derived melanoma cell line growth inhibition [TAK]. Conditions: spheroids with HUVEC and MSC; for viability, T/C: stronger effect = lower value. The gist of the method:
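Tumor cells were grown as spheroids with HUVEC and hMSC (60:25:15) and treated with targeted agents combined with TAK-243 or ipatasertib. Drugs were tested in half-log steps down from near the clinical Cmax, or from 10 microM where Cmax was unknown.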

[1] abbreviates: curve of first compound, second compound 0.3 µM.
Where [2] appears, read: curve of first compound, second compound 0.949 µM.
Setting [3] is: curve of first compound, second compound 3 µM.
Where [4] appears, read: curve of first compound, second compound 9.49 µM.
[5] abbreviates: curve of first compound, second compound 30 µM.
The mark [6] stands for this setting: second compound 0.3 µM, first compound 0.00316 µM.
[7] abbreviates: second compound 0.3 µM, first compound 0.01 µM.
Where [8] appears, read: second compound 0.3 µM, first compound 0.0316 µM.
[9] abbreviates: second compound 0.3 µM, first compound 0.1 µM.
Setting [10] is: second compound 0.949 µM, first compound 0.00316 µM.
Setting [11] is: second compound 0.949 µM, first compound 0.01 µM.
The mark [12] stands for this setting: second compound 0.949 µM, first compound 0.0316 µM.
[13] abbreviates: second compound 0.949 µM, first compound 0.1 µM.
Setting [14] is: second compound 3 µM, first compound 0.00316 µM.
Setting [15] is: second compound 3 µM, first compound 0.01 µM.
[16] abbreviates: second compound 3 µM, first compound 0.0316 µM.
Setting [17] is: second compound 3 µM, first compound 0.1 µM.
The mark [18] stands for this setting: second compound 9.49 µM, first compound 0.00316 µM.
The mark [19] stands for this setting: second compound 9.49 µM, first compound 0.01 µM.
Setting [20] is: second compound 9.49 µM, first compound 0.0316 µM.
Setting [21] is: second compound 9.49 µM, first compound 0.1 µM.
Setting [22] is: second compound 30 µM, first compound 0.00316 µM.
Where [23] appears, read: second compound 30 µM, first compound 0.01 µM.
The mark [24] stands for this setting: second compound 30 µM, first compound 0.0316 µM.
[25] abbreviates: second compound 30 µM, first compound 0.1 µM.

“And” between values parts separate entries of the source, which are not always exact repeats. Equal entries are not always repeated.
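Further: spheroids exposed to compounds for 7 days before the endpoint.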

A word on the IC50: it is the midpoint of a concentration-inhibition curve. A word on the viability, T/C: it is the ratio of treated to control. With `CC(C)CC(NC(=O)CNC(=O)c1cc(Cl)ccc1Cl)B1OC(=O)CC(CC(=O)O)(C(=O)O)O1` (stereo not drawn) + CC(C)NCC(C(=O)N1CCN(c2ncnc3c2C(C)CC3O)CC1)c1ccc(Cl)cc1, the IC50 under setting [1] turned out to be 18 nM; the IC50 under setting [2] came out at 17.1 nM; the IC50 under setting [3] was 12.2 nM; the IC50 under setting [4] was under 0.316 nM; the IC50 under setting [5] was under 0.316 nM. For the same compound, the viability, T/C (second compound 0.3 µM, first compound 0.000316 µM) is 96.8%; the viability, T/C (second compound 0.3 µM, first compound 0.001 µM) is 86.9%; the viability, T/C under setting [6] is 94.9%; the viability, T/C under setting [7] was 88%; the viability, T/C under setting [8] is 13.8%; the viability, T/C under setting [9] is 0.27%. The viability, T/C is 88.7% (second compound 0.949 µM, first compound 0.000316 µM); 87.7% (second compound 0.949 µM, first compound 0.001 µM); 90.2% under setting [10]; 82.1% under setting [11]; 13.2% under setting [12]; 0.34% under setting [13]. The viability, T/C is, setting by setting: (second compound 3 µM, first compound 0.000316 µM) 79.4%; (second compound 3 µM, first compound 0.001 µM) 76.9%; under setting [14], 78.9%; under setting [15], 58.8%; under setting [16], 8.09%; under setting [17], 0.23%. Also, the viability, T/C runs as follows: (second compound 9.49 µM, first compound 0.000316 µM) 43.3%; (second compound 9.49 µM, first compound 0.001 µM) 41.5%; under setting [18], 42%; under setting [19], 40.9%; under setting [20], 4.19%; under setting [21], 0.25%. Also, the viability, T/C is, setting by setting: (second compound 30 µM, first compound 0.000316 µM) 17.5%; (second compound 30 µM, first compound 0.001 µM) 20.3%; under setting [22], 18.5%; under setting [23], 15.4%; under setting [24], 2.17%; under setting [25], 0.28%.

For the compound `CC(=O)Nc1cccc(-n2c(=O)n(C3CC3)c(=O)c3c(Nc4ccc(I)cc4F)n(C)c(=O)c(C)c32)c1`, the viability, T/C reads like this: (compound 94.9 pM) 102% and 101%; (compound 0.0003 µM) 105% and 111%; (compound 0.000949 µM) 100% and 102%; (compound 0.003 µM) 83.8% and 66.8%; (compound 0.00949 µM) 15.5% and 14.8%; (compound 0.03 µM) 8.87% and 8.9%. Moreover, the IC50 (curve of compound) was 5.3 nM and 4.35 nM.

Consider `Cc1nc(NC(=O)N2CCCC2C(N)=O)sc1-c1ccnc(C(C)(C)C(F)(F)F)c1` (stereo not drawn), for which the viability, T/C reads like this: (compound 0.0316 µM) 97.2% and 99.7%; (compound 0.1 µM) 94.9% and 98.4%; (compound 0.316 µM) 86.1% and 86.6%; (compound 1 µM) 86.8% and 74.4%; (compound 3.16 µM) 67.9% and 64.5%; (compound 10 µM) 52.8% and 56.2%. For the same compound, the IC50 (curve of compound) is over 10000 nM.

As for `COC1CC2CCC(C)C(O)(O2)C(=O)C(=O)N2CCCCC2C(=O)OC(C(C)CC2CCC(OCCO)C(OC)C2)CC(=O)C(C)C=C(C)C(O)C(OC)C(=O)C(C)CC(C)C=CC=CC=C1C` (stereo not drawn), the viability, T/C (compound 0.000316 µM) was 98.5% and 87%; the viability, T/C (compound 0.001 µM) is 81.8% and 87.3%; the viability, T/C (compound 0.00316 µM) is 70% and 71.2%; the viability, T/C (compound 0.01 µM) was 59.4% and 64.1%; the viability, T/C (compound 0.0316 µM) was 62.3% and 59.9%; the viability, T/C (compound 0.1 µM) was 46% and 51.8%. Besides, the IC50 (curve of compound) is 92.9 nM and > 100 nM.

Regarding `COc1c(OCCCN2CCOCC2)ccc2c3n(c(=NC(=O)c4cnc(N)nc4)nc12)CCN3` + CC(C)NCC(C(=O)N1CCN(c2ncnc3c2C(C)CC3O)CC1)c1ccc(Cl)cc1, the IC50 is 65.8 nM under setting [1]; 51.2 nM under setting [2]; 16.8 nM under setting [3]; under 3.16 nM under setting [4]; under 3.16 nM under setting [5]. The viability, T/C was 94.6% under setting [6]; 91.4% under setting [7]; 70.6% under setting [8]; 38.3% under setting [9]; 11.3% (second compound 0.3 µM, first compound 0.316 µM); 2.36% (second compound 0.3 µM, first compound 1 µM). The viability, T/C is 86.7% under setting [10]; 85.1% under setting [11]; 61% under setting [12]; 33.3% under setting [13]; 6.84% (second compound 0.949 µM, first compound 0.316 µM); 1.52% (second compound 0.949 µM, first compound 1 µM). The viability, T/C is 67.4% under setting [14]; 56.6% under setting [15]; 40.7% under setting [16]; 21.7% under setting [17]; 3.81% (second compound 3 µM, first compound 0.316 µM); 1.29% (second compound 3 µM, first compound 1 µM). Besides, the viability, T/C is 30.9% under setting [18]; 35.9% under setting [19]; 18.5% under setting [20]; 9.13% under setting [21]; 2.36% (second compound 9.49 µM, first compound 0.316 µM); 1.24% (second compound 9.49 µM, first compound 1 µM). Moreover, the viability, T/C is 13.6% under setting [22]; 11.5% under setting [23]; 6.36% under setting [24]; 3.28% under setting [25]; 0.7% (second compound 30 µM, first compound 0.316 µM); 0.29% (second compound 30 µM, first compound 1 µM).

As for `CC(C)n1nc(-c2ccc3oc(N)nc3c2)c2c(N)ncnc21`, the viability, T/C was 97.2% and 94.8% (compound 0.000316 µM); 95.3% and 91.7% (compound 0.001 µM); 81.4% and 96.3% (compound 0.00316 µM); 80.2% and 86.3% (compound 0.01 µM); 48% and 56.1% (compound 0.0316 µM); 33.3% and 34.1% (compound 0.1 µM). In addition, the IC50 (curve of compound) was 33.9 nM and 43.3 nM.

The record behind these values is PubChem BioAssay AID2060363 (Molecular Pharmacology Branch, DTP, NCI, 2025).
